Drawing on ChEMBL document CHEMBL1125700, “Conformational properties of semirigid antipsychotic drugs: the pharmacophore for dopamine D-2 antagonist activity” (J Med Chem, 1991), this text covers Ki for three compounds.

Values joined by “and” are separate entries in the source; they are usually repeats but may differ in a detail not shown here. Equal entries are not always repeated.

Assay [1] addresses T1, Sigma non-opioid intracellular receptor 1 (Homo sapiens, UniProt Q99720). The experiment in a line: The compound was tested for binding affinity against sigma receptor using DTG as radioligand.
The target of assay [2] is Muscarinic acetylcholine receptor. The experiment in a line: The compound was tested for binding affinity against muscarinic acetylcholine receptor using QNB as radioligand. The class given is protein assay.
Assay [3] deals with T2, D(1A) dopamine receptor (Homo sapiens, UniProt P21728). The experiment in a line: Binding affinity determined in radioreceptor binding assay by using [3H]SCH-23390 radioligand against dopamine receptor D1.
T2 sequence (P21728 whole entry): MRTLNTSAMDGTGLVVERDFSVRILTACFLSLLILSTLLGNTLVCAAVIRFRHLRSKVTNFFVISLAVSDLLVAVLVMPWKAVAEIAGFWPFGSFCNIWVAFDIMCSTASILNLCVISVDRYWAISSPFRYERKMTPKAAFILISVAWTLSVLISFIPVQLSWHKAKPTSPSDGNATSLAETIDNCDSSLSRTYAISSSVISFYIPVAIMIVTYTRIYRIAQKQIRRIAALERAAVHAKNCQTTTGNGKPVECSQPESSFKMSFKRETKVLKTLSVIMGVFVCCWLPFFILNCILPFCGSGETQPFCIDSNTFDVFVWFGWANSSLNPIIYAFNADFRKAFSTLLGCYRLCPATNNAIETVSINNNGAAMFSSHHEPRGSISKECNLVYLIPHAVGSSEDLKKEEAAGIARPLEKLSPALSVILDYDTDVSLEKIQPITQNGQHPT
The target of assay [4] is T3, D(2) dopamine receptor (Homo sapiens, UniProt P14416). Nature of the assay: The compound was tested for binding affinity against dopamine receptor D2 using raclopride as radioligand.
T3 sequence (P14416 whole entry): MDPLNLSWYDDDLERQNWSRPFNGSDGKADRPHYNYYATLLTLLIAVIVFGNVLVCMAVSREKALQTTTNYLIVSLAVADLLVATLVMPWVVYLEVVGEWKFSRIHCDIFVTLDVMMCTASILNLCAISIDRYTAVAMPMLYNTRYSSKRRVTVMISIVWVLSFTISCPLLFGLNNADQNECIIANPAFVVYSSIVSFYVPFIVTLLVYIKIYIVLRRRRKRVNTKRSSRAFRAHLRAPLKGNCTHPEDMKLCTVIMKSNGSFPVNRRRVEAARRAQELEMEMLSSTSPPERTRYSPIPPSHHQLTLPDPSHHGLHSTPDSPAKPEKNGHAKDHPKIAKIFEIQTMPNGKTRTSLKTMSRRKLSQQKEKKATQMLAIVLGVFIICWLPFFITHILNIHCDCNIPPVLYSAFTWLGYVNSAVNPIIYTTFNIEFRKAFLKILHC
Assay [5] concerns the target Serotonin 2 (5-HT2) receptor (Homo sapiens, UniProt P41595+P28223+P28335). Nature of the assay: The compound was tested for binding affinity against 5-hydroxytryptamine 2 receptor using ketanserin as radioligand. In kind it is protein assay.
Assay [6] deals with T4, Alpha-1A adrenergic receptor (Homo sapiens, UniProt P35348).
T4 sequence (P35348 whole entry): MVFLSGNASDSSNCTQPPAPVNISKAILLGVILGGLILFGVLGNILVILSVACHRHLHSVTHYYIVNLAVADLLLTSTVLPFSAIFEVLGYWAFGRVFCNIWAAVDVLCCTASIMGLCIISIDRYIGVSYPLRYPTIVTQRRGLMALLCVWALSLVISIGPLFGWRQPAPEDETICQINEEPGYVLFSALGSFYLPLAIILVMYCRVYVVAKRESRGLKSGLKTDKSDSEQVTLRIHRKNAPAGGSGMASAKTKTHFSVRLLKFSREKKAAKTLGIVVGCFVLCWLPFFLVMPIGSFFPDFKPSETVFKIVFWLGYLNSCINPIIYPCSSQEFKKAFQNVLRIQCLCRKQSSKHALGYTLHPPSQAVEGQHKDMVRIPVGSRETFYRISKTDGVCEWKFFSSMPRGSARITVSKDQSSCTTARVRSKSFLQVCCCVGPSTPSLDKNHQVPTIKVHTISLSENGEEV
Nature of the assay: The compound was tested for binding affinity against Alpha-1 adrenergic receptor using WB-4101 as radioligand.

Assay [7] addresses T1, Sigma non-opioid intracellular receptor 1. The experiment in a line: The compound was tested for binding affinity against Sigma opioid receptor using DTG as radioligand.
Assay [8] has as its target Muscarinic acetylcholine receptor. Nature of the assay: The compound was tested for binding affinity against Muscarinic acetylcholine receptor using QNB as radioligand. The class given is protein assay.
The target in assay [9] is T3, D(2) dopamine receptor. The experiment in a line: The compound was tested for binding affinity against Dopamine receptor D2 using raclopride as radioligand.
For assay [10], the target named is T2, D(1A) dopamine receptor. The experiment in a line: The compound was tested for binding affinity against Dopamine receptor D1 using SCH-23390 as radioligand.

T1 sequence (Q99720 whole entry): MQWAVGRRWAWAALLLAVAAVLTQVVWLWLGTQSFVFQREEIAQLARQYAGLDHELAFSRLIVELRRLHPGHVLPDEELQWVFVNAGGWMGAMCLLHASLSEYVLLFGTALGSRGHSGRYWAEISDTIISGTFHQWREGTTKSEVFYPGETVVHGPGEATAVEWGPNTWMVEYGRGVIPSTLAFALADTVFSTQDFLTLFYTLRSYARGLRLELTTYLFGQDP

Take `CN(C)C1C=CC2(CC1)c1ccccc1CCc1ccc(Cl)cc12` (centres undefined): the Ki is 550 nM and 1400 nM in assay [1]; 94 nM and 43 nM in assay [2].
In the case of `CN(C)C1C=CC2(CC1)c1ccccc1C=Cc1ccc(Cl)cc12` (centres undefined), the inhibition constant Ki on D(1A) dopamine receptor [3] came out at 0.3 nM; on D(2) dopamine receptor [4], 0.66 nM; in assay [5], 1 nM; in [6] it was 36 nM; in assay [1], 1600 nM; in assay [2], 4.3 nM.
Turning to `CN(C)C1C=CC2(CC1)c1ccccc1C=Cc1ccc(Cl)cc12` (single isomer, unassigned; enantiomer 2), the inhibitory constant (Ki) in assay [7] was determined as 800 nM; in assay [8], 7.2 nM; in assay [5], 1.3 nM; in [6], 61 nM; on D(2) dopamine receptor [9] it was 6.5 nM; on D(1A) dopamine receptor [10], 3.1 nM.
